Laboratory results: PMC11588021, “Sequence-defined phosphoestamers for selective inhibition of the KRAS^G12D/RAF1 interaction” (Chemical Science, 2024)
“And” between values parts separate entries of the source, which are not always exact repeats. Equal values may be shown once. “Also recorded” adds a separate entry of the source. Each block holds one compound with its values, some of them ahead of it.

Legend:
[1] = biological target: T1, KRAS^G12D-GMPPnP / RAF1-RBD-GFP interaction (Homo sapiens, UniProt P01116, G12D); experiment: KRAS^G12D/RAF1-RBD interaction assay (plate coated with KRAS, RAF1-RBD-GFP fluorescence); assay type: biochemical
T1 construct: and KRas4B(1-169)[G12D], optimised for expression in E.coli; His6 (N); Avi tag (biotinylated with BirA) (N); TEV site (N); made in house; host or cells: E. coli BL21(DE3) Gold for KRAS; E. coli BL21(DE3) for RAF1-RBD-GFP
Method: Phosphoestamers O1–O6 were resynthesised on a 1 μmol scale using the DNA synthesiser and the yields were determined by manually cleaving the final DMT protecting group of each molecule and quantifying the DMT cation by UV-visible spectroscopy (ESI Section 2.4 ^†). The achievement of desired length and purity was confirmed by polyacrylamide gel electrophoresis (Fig. 5a). The resynthesised phosphoestamers were purified away from smaller molecules using C18 spin tips. To ensure the assay was viable, a positive control Ch-3 (Fig. 5a) known to disrupt KRAS^G12D interactions[50] was synthesised. […] Any KRAS sites not blocked by the phosphoestamers would interact with the RAF1-GFP and result in a fluorescent signal which would be detected. In this assay, we first established that both KRAS^G12D-GMPPnP and RAF1-RBD-GFP were required to give a fluorescence signal.
To the 96 well plate, 100 µL was added to each well containing 2 µg/mL KRASG12D-GMPPnP or KRASWT-GMPPnP in coating buffer (see buffers, page 3). […] The emission spectrum o f GFP (490 – 560 nm) was measured on the plate reader.
GraphPad Prism (9.5.1) was used to calculate the area under the curve (AUC) of the emission spectra between 490 and 540 nm. IC50 values were calculated on GraphPad Prism, using the non-linea r regression fit (Sigmoidal, 4PL, X is concentration) analysis. […]

[2] = biological target: T2, KRAS^WT-GMPPnP / RAF1-GFP interaction (Homo sapiens, UniProt P01116); experiment: KRAS^WT/RAF1-RBD interaction assay (same plate assay); assay type: biochemical; conditions: 'high' and 'low' concentrations, approximately IC50 ÷ 3 and IC50 × 3
T2 construct: and KRas4B(1-169)[G12D], optimised for expression in E.coli; His6 (N); Avi tag (biotinylated with BirA) (N); TEV site (N); made in house; host or cells: E. coli BL21(DE3) Gold for KRAS; E. coli BL21(DE3) for RAF1-RBD-GFP
Method: Since four phosphoestamers were determined to have consistent dissociation activity between KRAS^G12D-GMPPnP and RAF1-GFP, we then used the same assay to determine whether these molecules would have any activity against KRAS^WT-GMPPnP or whether they would be selective for the mutant form (Fig. 5e).
To the 96 well plate, 100 µL was added to each well containing 2 µg/mL KRASG12D-GMPPnP or KRASWT-GMPPnP in coating buffer (see buffers, page 3). The plate was shaken on a plate rotator at 300 rpm and left to incubate at 4 °C overnight. After incubation, the KRASG12D/WT solution was removed, and the plate was then washed with 100 µL per well of blocking buffer twice. 100 µL of blocking buffer was then added per well and the plate was incubated at 37 °C for one hour. […] The emission spectrum o f GFP (490 – 560 nm) was measured on the plate reader.
GraphPad Prism (9.5.1) was used to calculate the area under the curve (AUC) of the emission spectra between 490 and 540 nm. IC50 values were calculated on GraphPad Prism, using the non-linea r regression fit (Sigmoidal, 4PL, X is concentration) analysis.
To the well plate, 100 µL was added to each well containing 2 µg/mL of the 4:1 conjugate of KRASG12D-G M PP nP -streptavidin fluorescein in coating buffer. […] The emission spectrum of fluorescein (500 – 600 nm) was measured using the plate reader. […]

[3] = test system: KRAS^G12D (inactive GDP-form); set-up: method as in PMID 34889605; conditions: binds to the inactive GDP-form of the protein; cited from earlier work

- IC50 ([1]; AUC of GFP emission 490-540 nm, three biological repeats (O4 n = 4)): < 100 nM and 70.9 nM
Compound: NDI-C12-C12-C12-NDI-BPA [Phosphoestamer O2]
- Effect on KRAS^WT-GMPPnP/RAF1-GFP interaction [2]: only O5 caused a decrease in fluorescent signal; also recorded: inactive

- IC50 ([1]; positive control, n = 3): 6350 ± 200 nM
Compound: COc1cccc(-c2ccc(Nc3ccc(CN(C)C)cc3)c(OC)c2F)c1 [Ch-3, reference compound]

Compound: C#Cc1c(F)ccc2cc(O)cc(-c3ncc4c(N5CC6CCC(C5)N6)nc(OC[C@@]56CCCN5C[C@H](F)C6)nc4c3F)c12 [MRTX1133]
- IC50 [3]: 5 nM
